Source: patent publication US8859611B2, “Thiophene inhibitors of S-nitrosoglutathione reductase” (N30 Pharmaceuticals, Inc., priority 2009, dated 2014)

What follows are compounds tested against T1, GSNOR (Homo sapiens, UniProt P11766) (assay: GSNOR assay (in vitro inhibition of GSNOR activity, NADH absorbance at 340 nm)). Details: 100 mM NaPO4 pH 7.4, 0.240 mM GSNO, 0.300 mM NADH, 0.5 μg/mL GSNO Reductase, 1% DMSO, 25° C.; read-out: IC50 (GSNOR inhibitor activity).
T1 construct: made in house; host or cells: E. coli (arabinose-induced)
T1 sequence (P11766 whole entry): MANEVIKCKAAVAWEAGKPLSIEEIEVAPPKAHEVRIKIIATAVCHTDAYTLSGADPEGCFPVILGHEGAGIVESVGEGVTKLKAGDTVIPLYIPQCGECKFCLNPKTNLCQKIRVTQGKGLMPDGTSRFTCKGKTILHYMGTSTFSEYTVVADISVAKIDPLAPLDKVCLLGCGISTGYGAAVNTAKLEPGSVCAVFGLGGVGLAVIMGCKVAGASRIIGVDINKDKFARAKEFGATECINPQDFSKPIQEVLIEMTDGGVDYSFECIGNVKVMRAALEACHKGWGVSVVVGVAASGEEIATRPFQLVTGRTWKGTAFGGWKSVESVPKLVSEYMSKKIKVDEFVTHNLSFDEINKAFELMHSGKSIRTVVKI
Format: biochemical
Description: Various compounds were tested in vitro for their ability to inhibit GSNOR activity.
GSNOR expression and purification is described in Biochemistry 2000, 39, 10720-10729.
Pre-cultures were grown from stabs of a GSNOR glycerol stock in 2XYT media containing 100 ug/ml ampicillin after an overnight incubation at 37° C. Cells were then added to fresh 2XYT (4 L) containing ampicillin and grown to an OD (A600) of 0.6-0.9 at 37° C. before induction. GSNOR expression was induced with 0.1% arabinose in an overnight incubation at 20° C.
E. coli cell paste was lysed by nitrogen cavitation and the clarified lysate purified by Ni affinity chromatography on an AKTA FPLC (Amersham Pharmacia). The column was eluted in 20 mM Tris pH 8.0/250 mM NaCl with a 0-500 mM imidazole gradient. Eluted GSNOR fractions containing the Smt-GSNOR fusion were digested overnight with Ulp-1 at 4° C. to remove the affinity tag then re-run on the Ni column under the same conditions. GSNOR was recovered in the flowthrough fraction and for crystallography is further purified by Q-Sepharose and Heparin flowthrough chromatography in 20 mM Tris pH 8.0, 1 mM DTT, 10 uM ZnSO4.
GSNO and enzyme/NADH Solutions are made up fresh each day. The solutions are filtered and allowed to warm to room temperature. GSNO solution: 100 mM NaPO4 (pH 7.4), 0.480 mM GSNO. 396 μL of GSNO Solution is added to a cuvette followed by 8 μL of test compound in DMSO (or DMSO only for full reaction control) and mixed with the pipette tip. Compounds to be tested are made up at a stock concentration of 10 mM in 100% DMSO. 2 fold serial dilutions are done in 100% DMSO. 8 μL of each dilution are added to an assay so that the final concentration of DMSO in the assay is 1%. The concentrations of compounds tested range from 100 to 0.003 μM. Enzyme/NADH solution: 100 mM NaPO4 (pH 7.4), 0.600 mM NADH, 1.0 μg/mL GSNO Reductase. 396 μL of the Enzyme/NADH solution is added to the cuvette to start the reaction. The cuvette is placed in the Cary 3E UV/Visible Spectrophotometer and the change in 340 nm absorbance/min at 25° C. is recorded for 3 minutes. The assays are done in triplicate for each compound concentration. IC50's for each compound are calculated using the standard curve analysis in the Enzyme Kinetics Module of SigmaPlot.
Final assay conditions: 100 mM NaPO4, pH 7.4, 0.240 mM GSNO, 0.300 mM NADH, 0.5 μg/mL GSNO Reductase, and 1% DMSO. Final volume: 800 μL/cuvette.
Work on COc1ccc(-c2csc(CCC(=O)O)c2-c2ccc(C(N)=O)cc2C)cc1 [Example 1, 3-(3-(4-carbamoyl-2-methylphenyl)-4-(4-methoxyphenyl)thiophen-2-yl)propanoic acid] yielded an IC50 of under 1 µM.
COc1cc(Cl)ccc1-c1csc(CCC(=O)O)c1-c1ccc(C(N)=O)cc1 [Example 2, 3-(3-(4-carbamoylphenyl)-4-(4-chloro-2-methoxyphenyl)thiophen-2-yl)propanoic acid] was tested, and the IC50 was under 1 µM.
In the case of COc1cc(Cl)ccc1-c1csc(CCC(=O)O)c1-c1ccc(O)cc1 [Example 4, 3-(4-(4-chloro-2-methoxyphenyl)-3-(4-hydroxyphenyl)thiophen-2-yl)propanoic acid], the IC50 is reported as under 1 µM.
Cc1cc(C(N)=O)ccc1-c1c(-c2ccc(-n3ccnc3C)cc2)csc1CCC(=O)O [Example 7, 3-(3-(4-carbamoyl-2-methylphenyl)-4-(4-(2-methyl-1H-imidazol-1-yl)phenyl)thiophen-2-yl)propanoic acid] showed an IC50 of under 1 µM.
Compound Cc1nccn1-c1ccc(-c2csc(CCC(=O)O)c2-c2ccc(C(N)=O)cc2)cc1 [Example 8, 3-(3-(4-carbamoylphenyl)-4-(4-(2-methyl-1H-imidazol-1-yl)phenyl)thiophen-2-yl)propanoic acid] has an IC50 of under 1 µM.
Cc1cc(NS(C)(=O)=O)ccc1-c1c(-c2ccc(-n3ccnc3C)cc2)csc1CCC(=O)O [Example 9, 3-(4-(4-(2-methyl-1H-imidazol-1-yl)phenyl)-3-(2-methyl-4-(methylsulfonamido)phenyl)thiophen-2-yl)propanoic acid] showed an IC50 of under 1 µM.
With Cc1cc(C(N)=O)ccc1-c1c(-c2ccc(-n3ccnc3C)s2)csc1CCC(=O)O [Example 11, 3-(4′-(4-carbamoyl-2-methylphenyl)-5-(2-methyl-1H-imidazol-1-yl)-2,3′-bithiophen-5′-yl)propanoic acid] the IC50 was under 1 µM.
For Cc1cc(NS(C)(=O)=O)ccc1-c1c(-c2ccc(-n3ccnc3C)s2)csc1CCC(=O)O [Example 12, 3-(5-(2-methyl-1H-imidazol-1-yl)-4′-(2-methyl-4-(methylsulfonamido)phenyl)-2,3′-bithiophen-5′-yl)propanoic acid], the IC50 was under 1 µM.
Cc1cc(C(N)=O)ccc1-c1c(-c2ccc(Br)cc2)csc1CCC(=O)O [Example 13, 3-(4-(4-bromophenyl)-3-(4-carbamoyl-2-methylphenyl)thiophen-2-yl)propanoic acid] gave an IC50 of under 1 µM.
For COc1ccc(-c2scc(CCC(=O)O)c2-c2ccc(C(N)=O)cc2C)cc1 [Example 14, 3-(4-(4-carbamoyl-2-methylphenyl)-5-(4-methoxyphenyl)thiophen-3-yl)propanoic acid], the IC50 was under 1 µM.
